In patent US20010055756A1, “Internal de novo initiation sites of the HCV NS5B polymerase and use thereof” (priority 2000, published 2001):
Entries after “also recorded” stand apart in the source; their conditions may differ.

Tested on: HCV NS5B polymerase
Test: Testing of GTP analogs in the NS5B de novo initiation reaction with RNA template 24-1
Format: biochemical, hepatitis C virus
Conditions: analog at 500 μM added to reactions with 100 μM or 500 μM GTP, 5 nM NS5B, 10 nM template 24-1, 2.5 h
Experimental: Unless indicated otherwise, the standard reactions that incorporated [α-^33P]UTP contained 5 nM of purified NS5B and 10-50 nM of the indicated RNA template (i.e.: 24, 24-1, 128-4, 130-21, 150-41 or mutant templates) incubated at 22° C. for 2.5 h in 22.5 mM Tris-HCl pH 7.5, 5 mM MgCl2, 1 mM EDTA, 1.5 mM DTT, 30 mM NaCl, 0.33% N-Dodecyl-β-D-Maltoside, 0.01% Igepal CA-630, 5% DMSO, 5 μCi [α-^33P]UTP, 10 μM UTP, 500 μM of the three other rNTPs and 0.16 U/μl RNase inhibitor (Promega). NS5B polymerase reactions that incorporated γ-^32P into the radioactively labeled 5′product were supplemented with either 8 μCi of [γ-^32P]GTP or [γ-^32P]ATP in place of [α-^33P]UTP in the standard reaction. The reactions were then supplemented with PK buffer (50 mM Tris HCl pH 7.5 150 mM NaCl, 0.5% SDS) and treated with Proteinase K (0.8 μg /μl) and glycogen (0.1 μg/μl) for 30 min at 37° C. RNA was extracted with phenol-chloroform and precipitated with isopropanol. The RNA pellet was dissolved in 10-15 μl of denaturing solution (80% formamide, 10 mM EDTA), heated for 10 min at 70-75° C. and analysed on denaturing 8 M urea/5% polyacrylamide gels. Gels were dried and radioactive products visualized with a phospho-imager (Molecular Dynamics).
m7GpppG and GpppG were purchased from Ambion; Ribavirin monophosphate and Ribavirin triphosphate were purchased from Chemgenes (Ashland, Mass.); ddGTP was from Amersham; Caged GTP was from Molecular Probes. All other GTP analogs were from Sigma/Aldrich. Each of the analogs was added (at 500 μM) to the NS5B polymerization reaction containing either: 100 μM or 500 μM GTP (reference reactions). Stimulation by GTP itself, as a positive control, was performed such that the reactions then contained 600 μM or 1 mM GTP (respectively labeled as the +500 μM GTP bars). The standard polymerase reactions incorporating [α-^33P]UTP were incubated for 2.5 h in the presence of 5 nM NS5B and 10 nM of RNA template 24-1. The reactions were stopped by spotting 8 μl on a DE81 filters which were then washed extensively (3×) with 1M NaPO4 pH 7 and dried. The radioactivity incorporated into product RNA that was retained on the DE-81 filters was measured in a scintillation counter. The effect of the various analogs on the reaction is represented by the fold stimulation of activity compared to 100μM or 500μM GTP (reference reaction bars). 5′-p-FSBA=5′-p-fluorosulfonyl-benzoyladenosine

Compound | effect on de novo initiation reaction (fold stimulation relative to GTP alone) | further results
Nc1nc2c(ncn2[C@@H]2O[C@H](COP(=O)(O)O)[C@@H](O)[C@H]2O)c(=O)[nH]1 [GMP] | stimulating | –
Nc1nc2c(ncn2C(C=O)OC(C=O)COP(=O)(O)OP(=O)(O)OP(=O)(O)O)c(=O)[nH]1.[Na] (stereo not drawn) [GTP 2′3′-dialdehyde] | clear inhibitor; also recorded: inhibiting | effect on de novo initiation reaction (fold stimulation relative to GTP alone) (listed as GTP 2′3′dialdehyde): inhibitory
Nc1nc2c(ncn2[C@@H]2O[C@H](COP(=O)(O)OP(=O)(O)OP(=O)(O)O)[C@@H](O)[C@H]2O)c(=O)[nH]1 [GTP] | activation | –
Nc1nc2c(ncn2[C@@H]2O[C@H](COP(=O)(O)OP(=O)(O)OP(=O)(O)OC[C@H]3O[C@@H](n4cnc5c(=O)[nH]c(N)nc54)[C@H](O)[C@@H]3O)[C@@H](O)[C@H]2O)c(=O)[nH]1 [GpppG] | most efficient analogs in stimulating de novo initiation; also recorded: stimulating; also recorded: stimulate | –
CC(OP(=O)(O)OP(=O)(O)OP(=O)(O)OC[C@H]1O[C@@H](n2cnc3c(=O)[nH]c(N)nc32)[C@H](O)[C@@H]1O)c1ccccc1[N+](=O)[O-] (stereo partly drawn) [caged-GTP] | stimulating | –
Nc1nc2c(ncn2[C@@H]2O[C@H](CO)[C@@H](O)[C@H]2O)c(=O)[nH]1 [guanosine] | stimulating; also recorded: stimulate | –
Cn1c[n+]([C@@H]2O[C@H](COP(=O)(O)OP(=O)([O-])OP(=O)(O)OC[C@H]3O[C@@H](n4cnc5c(=O)[nH]c(N)nc54)[C@H](O)[C@@H]3O)[C@@H](O)[C@H]2O)c2nc(N)[nH]c(=O)c21 [m7 GpppG, 7-methyl GpppG] | most efficient analogs in stimulating de novo initiation | effect on de novo initiation reaction (fold stimulation relative to GTP alone) (listed as 7-methyl GpppG): stimulating; also recorded: stimulate
NC(=O)c1ncn([C@@H]2O[C@H](CO[P@@](=O)(O)O[P@](=O)(O)OP(=O)(O)O)[C@@H](O)[C@H]2O)n1 [ribavirin tri-phosphate, Ribavirin triphosphate] | moderate level of inhibition | effect on de novo initiation reaction (fold stimulation relative to GTP alone) (listed as ribavirin triphosphate): inhibiting; also recorded: inhibitory
GDP-γ-S | stimulating | –
